Conditions: Liquid

CCn1cc[n+](C)c1.O=S(=O)([N-]S(=O)(=O)C(F)(F)F)C(F)(F)F
mass density [kg/m3]
Conditions | 293.15 K | 303.15 K | 313.15 K | 323.15 K | 333.15 K | 343.15 K | 353.15 K | 393.15 K
100 kPa | 1526 | 1514 | 1503 | 1493 | 1482 | 1472 | 1461 | 1424
1000 kPa | 1526 | 1515 | 1504 | 1493 | 1483 | 1472 | 1462 | 1424
2000 kPa | 1527 | 1516 | 1505 | 1494 | 1483 | 1473 | 1463 | 1425
3000 kPa | 1528 | 1517 | 1506 | 1495 | 1484 | 1474 | 1464 | 1426
4000 kPa | 1528 | 1517 | 1506 | 1496 | 1485 | 1475 | 1465 | 1427
5000 kPa | 1529 | 1518 | 1507 | 1496 | 1486 | 1476 | 1466 | 1428
7500 kPa | 1531 | 1520 | 1509 | 1498 | 1488 | 1478 | 1468 | 1431
10000 kPa | 1533 | 1522 | 1511 | 1500 | 1490 | 1480 | 1470 | 1433
15000 kPa | 1536 | 1525 | 1515 | 1504 | 1494 | 1484 | 1474 | 1438
20000 kPa | 1540 | 1529 | 1518 | 1508 | 1498 | 1488 | 1478 | 1443
25000 kPa | 1543 | 1532 | 1522 | 1512 | 1502 | 1492 | 1483 | 1448
30000 kPa | 1547 | 1536 | 1526 | 1516 | 1506 | 1496 | 1487 | 1453

CCn1cc[n+](C)c1.F[B-](F)(F)F [1-ethyl-3-methylimidazolium tetrafluoroborate]
mass density [kg/m3]
Conditions | 293.15 K | 303.15 K | 313.15 K | 323.15 K | 333.15 K | 343.15 K | 353.15 K | 393.15 K
100 kPa | 1305 | 1296 | 1288 | 1280 | 1272 | 1264 | 1257 | 1229
1000 kPa | 1305 | 1296 | 1288 | 1280 | 1272 | 1265 | 1257 | 1230
2000 kPa | 1306 | 1297 | 1289 | 1281 | 1273 | 1265 | 1258 | 1230
3000 kPa | 1306 | 1297 | 1289 | 1281 | 1273 | 1266 | 1258 | 1231
4000 kPa | 1307 | 1298 | 1290 | 1282 | 1274 | 1266 | 1259 | 1231
5000 kPa | 1307 | 1298 | 1290 | 1282 | 1274 | 1267 | 1259 | 1232
7500 kPa | 1308 | 1299 | 1291 | 1283 | 1275 | 1268 | 1261 | 1233
10000 kPa | 1309 | 1300 | 1292 | 1284 | 1277 | 1269 | 1262 | 1235
15000 kPa | 1311 | 1303 | 1295 | 1287 | 1279 | 1272 | 1264 | 1238
20000 kPa | 1313 | 1305 | 1297 | 1289 | 1281 | 1274 | 1267 | 1240
25000 kPa | 1316 | 1307 | 1299 | 1291 | 1284 | 1277 | 1269 | 1243
30000 kPa | 1318 | 1309 | 1301 | 1294 | 1286 | 1279 | 1272 | 1246
